In patent US20240190847A1, “INDOLINE DERIVATIVES AS DDR1 AND DDR2 INHIBITORS” (CHIESI FARMACEUTICI S.P.A., priority 2021, published 2024):
pIC50, pKi: −log10 of the molar value.

What was measured:
[1] = tested on: DDR2; assay: DDR2 cell based assay (phospho-ELISA in HEK293T-DDR2 cells); set-up: species or system human; conditions: DDR2 phosphorylation, bovine Type II Collagen 50 μg/ml, read-out: IC50DDR2
Description: The inhibition of DDR2 phosphorylation by compounds was evaluated in HEK293T-DDR2 recombinant cells by phospho-ELISA assay. Briefly, HEK293T-DDR2 cells were seeded in poly-D-lysine-coated 24-well plates at a density of 250.000 cells/well and incubated for 1.5 hours at 37° C. and 5% CO2 in DMEM+10% FBS. After that, the medium was changed to serum-free DMEM and cells were incubated for 3 hours. Then. test compounds were added at different concentrations 30 minutes before stimulation with bovine Type II Collagen at 50 μg/ml for further 3 hours. For DDR2 phospho-ELISA assay (DuoSet IC Human Phospho-DDR2; R&D Systems), protein extracts were obtained by adding 60 μl/well of lysis buffer prepared according to the manufacturer's instructions.
Protein concentration in the samples was determined by BCA assay and the levels of phospho-DDR2 were determined following R&D Systems indications. Raw data were normalized to maximal inhibition control (0% for normalization) and positive control (100% for normalization; cells treated with 20 μg/ml collagen II) and IC50 parameters were calculated in GraphPad Prism 8.0 software, using sigmoidal dose-response curve fitting with variable slope.

[2] = biological target: DDR1; assay: DDR1 LanthaScreen Europium Kinase Binding assay; conditions: 5 nM DDR1, 1 hour at room temperature, Ki from IC50 by Cheng-Prusoff, read-out: Ki DDR1
Description: (§1) DDR1 and DDR2 binding assays were performed using Life Technologies LanthaScreen™ Europium Kinase Binding assay. The compounds were incubated with 5 nM DDR1 (Carna Biosciences) or 5 nM DDR2 (Life Technologies) for 1 hour at room temperature in white 384-well OptiPlate (PerkinElmer), containing 20 nM or 10 nM Kinase Tracer 178 respectively and 2 nM Europium labelled anti-GST antibody (Life Technologies) in assay buffer (50 mM HEPES pH 7.5, 10 mM MgCl2, 1 mM EGTA and 0.01% BRIJ35). The ratio of fluorescence emission 665 nm/615 nm after excitation at 340 nm was obtained using the Tecan Spark 20M plate reader. IC50 values were determined in GraphPad Prism 8.0 software, using 4 parameter model: log(inhibitor) vs. response. IC50 values were converted in Ki using the Cheng-Prusoff equation (Ki=IC50/(1+[Tracer]/Kd).

[3] = biological target: DDR2; assay: DDR2 LanthaScreen Europium Kinase Binding assay; conditions: 5 nM DDR2, 1 hour at room temperature, Ki from IC50 by Cheng-Prusoff, read-out: Ki DDR2
Description: as §1

[4] = tested on: DDR1 receptor; assay: DDR1 cell based assay (PathHunter U2OS DDR1); conditions: U2OS-DDR1 cells, bovine Type II Collagen 20 μg/ml stimulation
Description: The inhibition of DDR1 receptor activation by compounds was evaluated by PathHunter® U2OS DDR1 assay (Eurofins DiscoverX), according to the manufacturer's instructions. Briefly, U2O5-DDR1 cells were seeded in white 384-well plates at a density of 5000 cells/well and incubated for 2 hours at 37° C. and 5% CO2. Cells were then treated with compounds at different concentrations and incubated for 30 minutes, before stimulation with bovine Type II Collagen 20 μg/ml and incubation overnight at 37° C. and 5% CO2. PathHunter Detection Reagents were prepared according to the protocol provided by DiscoverX and 20 μl/well of this mix were added to each well. After incubating the plates for 1 hour at room temperature in the dark, luminescence signal was acquired with a plate reader. Raw data were normalized to vehicle control (0% for normalization) and positive control (100% for normalization; cells treated with 20 μg/ml collagen II) and IC50 parameters were calculated in GraphPad Prism 8.0 software, using sigmoidal dose-response curve fitting with variable slope.

Compound | pIC50 [1] | pKi [2] | pKi [3] | pIC50 [4]
CC(=O)Nc1ccc(CN2CCc3ccc(C(=O)Nc4ccc(CN5CCN(C)CC5)c(C(F)(F)F)c4)cc32)cn1 [Example 13, 1-((6-acetamidopyridin-3-yl)methyl)-N-(4-((4-methylpiperazin-1-yl)methyl)-3-(trifluoromethyl)phenyl)indoline-6-carboxamide] | 7.10 to 7.30 | > 7.60 | 7.30 to 7.60 | > 7.60
CNc1ccc(CN2CCc3ccc(C(=O)Nc4ccc(CN5CCN(C)CC5)c(C(F)(F)F)c4)cc32)cn1 [Example 14, 1-((6-(methylamino)pyridin-3-yl)methyl)-N-(4-((4-methylpiperazin-1-yl)methyl)-3-(trifluoromethyl)phenyl)indoline-6-carboxamide] | 7.10 to 7.30 | > 7.60 | 7.30 to 7.60 | > 7.60
COCCn1cc(Nc2ncc(CN3CCc4ccc(C(=O)Nc5cccc(C(F)(F)F)c5)cc43)cn2)cn1 [Example 16, 1-((2-((1-(2-methoxyethyl)-1H-pyrazol-4-yl)amino)pyrimidin-5-yl)methyl)-N-(3-(trifluoromethyl)phenyl)indoline-6-carboxamide] | > 7.60 | > 7.60 | > 7.60 | > 7.60
CN1CCN(Cc2cc(NC(=O)c3ccc4c(c3)N(Cc3cnc(Nc5cnn(C)c5)nc3)CC4)cc(C(F)(F)F)c2)CC1 [Example 18, 1-((2-((1-methyl-1H-pyrazol-4-yl)amino)pyrimidin-5-yl)methyl)-N-(3-((4-methylpiperazin-1-yl)methyl)-5-(trifluoromethyl)phenyl)indoline-6-carboxamide] | > 7.60 | > 7.60 | > 7.60 | > 7.60
